# Test results published in patent publication US12448388B2, “PRMT5 inhibitors and uses thereof” (Gilead Sciences, Inc., priority 2023, dated 2025).
# Read-outs that look alike come from different tables or passages of the source.
# Key:
# [1] = tested on: HCT116 MTAP-deleted cell lines; assay: Cell viability assay (CellTiter-Glo, 7 days), HCT116 MTAP-deleted; format: cell-based; settings: Homo sapiens, HCT-116, HCT116 MTAP-deleted, class symbols, read-out: CC50
# Method in brief: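 PRMT5 inhibitors were serially diluted in DMSO and acoustically spotted as dose-response series into plates before cell seeding. Cells were grown with compound for 7 days at 37 °C, 5% CO2, 90% humidity, then viability was read by CellTiter-Glo luminescence and reported as CC50.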
# [2] = tested on: Symmetric Di-methyl Arginine (SDMA) signal (PRMT5 inhibition) in HCT116 MTAP-deleted cells; assay: Symmetric di-methyl arginine image-based high content screen assay (SDMA assay), HCT116 MTAP-deleted; format: cell-based; settings: for EC50: Homo sapiens, HCT-116, HCT116 MTAP-deleted, class symbols
# Protocol: Symmetric di-methyl arginine image-based high content screen assay (SDMA assay) was performed in HCT116 WT and HCT116 MTAP-deleted cell lines to measure Symmetric Di-methyl Arginine (SDMA) signal reduction after selective PRMT5 inhibition in the MTAP-deleted cells. Control compounds were analyzed in parallel each time for quality control.
# Briefly, the same compound plates were generated as mentioned in the previous section of Cell viability assay on Day −1. On Day 0, 800 HCT WT or HCT116 MTAP-deleted cell were seeded in compound-containing 384 well plates (50 μl per well) in RPMI 1640 media supplemented with 10% heat inactivated fetal bovine serum, Glutamax and penicillin streptomycin using EL460 liquid dispenser 5 μl cassette (BioTek, part no. 7170011). After equilibrating the plate at room temperature, the cells were incubated for 3 days inside the sealed incubator set at 37° C. with 90% humidity and 5% C02.
# On Day 3, the cells were fixed by adding 45 μl of 8% neutralized formalin solution to each well using EL460 liquid dispenser 5 μl cassette and the cells were incubated for 30 minutes at room temperature. The formalin solution was washed off with […] phosphate buffered saline (dPBS), the 0.1% Triton X-100 solution in dPBS was used to permeabilize the cells for 15 minutes at room temperature. The triton solution was aspirated, 50 μl of Odyssey Blocking buffer +0.05% Tween20 was added and the plate was incubated at room temperature for 30 minutes.
# The blocking solution was removed, a 20 μl of SDMA antibody (Cell Signaling Technology, Cat no. 13222) diluted 1:500 in Odyssey Blocking buffer +0.05% Tween20 was added and the plate was incubated at 4° C. overnight. Next day, the primary SDME antibody solution was washed from each well three times with 0.05% Tween20 in dPBS (PBST).
# A 30 μl of the secondary antibody, a Goat anti-Rabbit Alexa Fluor Plus 488 (Invitrogen, Cat no. PIA32731) was diluted 1:500 in Odyssey Blocking buffer +0.05% Tween20 and the plate was incubated for 1.5 hours in dark at room temperature. The secondary antibody solution was removed, 30 μl of 5 mg/ml DAPI solution diluted 1:2000 in dPBS was added and the plate was incubated for 30 minutes in dark at room temperature. The DAPI solution was aspirated and the wells were washed six times with dPBS.
# The SDMA signal and DAPI signal per cell were counted using a Cellomics CX7 LZR instrument reading under 488 and 405 nm laser, respectively. The SDMA signal was quantified by mean average intensity per cell from Alexa Fluor Plus 488 after the cell was defined with DAPI. The EC50 values for each compound after 3 days of treatment were calculated using 4 parameter non-linear logistical curve fit.
# For the SDMA assay i.e. EC50 shown in Table 3A: A: EC50≤1 nM, B: 1 nM<EC50≤5 nM, C: EC50>5 nM.
# [3] = HCT116 WT versus HCT116 MTAP-deleted
# [4] = HCT116 WT vs HCT116 MTAP-deleted
Structure (SMILES),"EC50 selectivity [2, 3]",EC50 [2] [nM],"EC50 selectivity [2, 4]",CC50 ([1]; cell viability) [nM],CC50 ([1]; cell viability assay) [nM]
"C[C@H]1CN(C(=O)c2cc3c(cc2F)nc(N)c2cncn23)[C@H]2c3cc(F)c(C4CC4)cc3C[C@H]2O1 [Ff-201, (4-amino-7-fluoroimidazo[1,5-a]quinoxalin-8-yl)((2S,4aS,9aR)-7-cyclopropyl-6-fluoro-2-methyl-2,3,9,9a-tetrahydroindeno[2,1-b][1,4]oxazin-4(4aH)-yl)methanone]",58,1 to 5,,< 100,
"Nc1nc2cc(F)c(C(=O)N3CCCC4OCc5nc(C(F)(F)F)ccc5[C@@H]43)cc2n2cncc12 (mixture of isomers) [Ff-319, Rac-(4-amino-7-fluoroimidazo[1,5-a]quinoxalin-8-yl)((4aS,10bS)-8-(trifluoromethyl)-2,3,4,4a,6,10b-hexahydro-1H-pyrano[3,2-b:5,4-b′]dipyridin-1-yl)methanone]",42,1 to 5,,< 100,
"CN(C(=O)c1cc2c(cc1F)nc(N)c1cncn12)[C@@H]1COc2cc(-c3cnn(C4CC4)c3)ccc21 [Ff-215, (S)-4-amino-N-(6-(1-cyclopropyl-1H-pyrazol-4-yl)-2,3-dihydrobenzofuran-3-yl)-7-fluoro-N-methylimidazo[1,5-a]quinoxaline-8-carboxamide]",224,1 to 5,,< 100,
"Nc1nc2ccc(C(=O)N3C[C@H](F)CC4Oc5cc(OC(F)(F)F)ccc5C43)cc2n2cncc12 (mixture of isomers) [Fg-58, rac-(4-aminoimidazo[1,5-a]quinoxalin-8-yl)((3R,4aS,9bS)-3-fluoro-7-(trifluoromethoxy)-3,4,4a,9b-tetrahydrobenzofuro[3,2-b]pyridin-1(2H)-yl)methanone]",,1 to 5,345,,< 100
"Nc1nc2cc(F)c(C(=O)N(Cc3ccc(C(F)(F)F)cc3F)C34CC(C3)C4)cc2n2cncc12 [Ff-210, 4-amino-N-(bicyclo[1.1.1]pentan-1-yl)-7-fluoro-N-(2-fluoro-4-(trifluoromethyl)benzyl)imidazo[1,5-a]quinoxaline-8-carboxamide]",45,≤ 1,,< 100,
"Cc1ncc2c(N)nc3ccc(C(=O)N(C)[C@@H]4COc5cc(C#CC6CCCO6)ccc54)cc3n12 (stereo partly drawn) [Ff-17, 4-amino-N,1-dimethyl-N-((3S)-6-((tetrahydrofuran-2-yl)ethynyl)-2,3-dihydrobenzofuran-3-yl)imidazo[1,5-a]quinoxaline-8-carboxamide]",253,1 to 5,,100 to 1000,

# Second part, led by results:
"EC50 selectivity [2, 3]",EC50 [2] [nM],"EC50 selectivity [2, 4]",Structure (SMILES),CC50 ([1]; cell viability) [nM],CC50 ([1]; cell viability assay) [nM]
,≤ 1,325,"Nc1nc2cnc(C(=O)N3CCC[C@@H]4Cc5cc(C(F)(F)F)ccc5[C@@H]43)cc2n2cncc12 (single isomer, unassigned) [Ff-687]",,< 100
,≤ 1,155,"[2H]C1([2H])CC[C@@H]2Oc3cc(C(F)(F)F)ccc3[C@@H]2N1C(=O)c1ccc2nc(N)c3cncn3c2c1 [Ff-643, (4-aminoimidazo[1,5-a]quinoxalin-8-yl)((4aS,9bS)-7-(trifluoromethyl)-3,4,4a,9b-tetrahydrobenzofuro[3,2-b]pyridin-1(2H)-yl-2,2-d2)methanone]",,< 100
352,≤ 1,,"CN(C(=O)c1ccc2nc(N)c3cncn3c2c1)[C@@H]1COc2cc(C(F)(F)F)ccc21 [Ff-11, (S)-4-amino-N-methyl-N-(6-(trifluoromethyl)-2,3-dihydrobenzofuran-3-yl)imidazo[1,5-a]quinoxaline-8-carboxamide]",< 100,
43,≤ 1,,"C[C@H]1CN(C(=O)c2cc3c(cc2F)nc(N)c2cncn23)[C@H]2c3cc(F)c(Br)cc3C[C@H]2O1 [Ff-165, (4-amino-7-fluoroimidazo[1,5-a]quinoxalin-8-yl)((2S,4aS,9aR)-7-bromo-6-fluoro-2-methyl-2,3,9,9a-tetrahydroindeno[2,1-b][1,4]oxazin-4(4aH)-yl)methanone]",< 100,
